The subject of experiment [1] is Vero. Nature of the experiment: viability of Vero cells under compound – cytotoxicity control for flavivirus capping enzyme inhibitors (AID 588742). The experiment is classed as functional. As to conditions: Chlorocebus sabaeus.
Experiment [2] relates to Streptococcus sp. 'group A'. Nature of the experiment: Streptococcus pyogenes SK(-)GAS viability under kanamycin – luminescence, BacTiterGlo, confirmation, counter-screen for streptokinase expression inhibitor project, dose response (AID 1900). The experiment is classed as functional, organism-based.
Experiment [3] in a line: alpha-synuclein stem-loop luciferase translation blockers – H4 neuroglioma cells, luminescence, confirmation (AID 1988). The format is functional, cell-based.
The target of experiment [4] is T1, Heat shock factor protein 1 (Mus musculus, UniProt P38532).
T1 sequence (P38532 whole entry): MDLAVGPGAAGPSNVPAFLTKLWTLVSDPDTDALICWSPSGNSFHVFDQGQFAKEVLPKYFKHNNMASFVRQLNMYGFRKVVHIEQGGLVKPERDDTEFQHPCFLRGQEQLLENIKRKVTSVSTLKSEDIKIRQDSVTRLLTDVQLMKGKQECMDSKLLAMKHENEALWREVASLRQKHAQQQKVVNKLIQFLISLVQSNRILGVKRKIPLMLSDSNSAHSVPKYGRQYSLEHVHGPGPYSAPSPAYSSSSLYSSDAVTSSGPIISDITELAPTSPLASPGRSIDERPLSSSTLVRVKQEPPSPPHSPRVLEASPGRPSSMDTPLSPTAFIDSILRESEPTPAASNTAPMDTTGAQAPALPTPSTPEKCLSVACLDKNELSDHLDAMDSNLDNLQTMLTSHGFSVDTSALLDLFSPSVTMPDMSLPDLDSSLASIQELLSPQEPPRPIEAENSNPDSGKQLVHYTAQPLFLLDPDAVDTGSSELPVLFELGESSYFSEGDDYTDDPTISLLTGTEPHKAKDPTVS
Nature of the experiment: enhancement of HSF1-driven luciferase signal – cell-based, NIH3T3, luminescence, dose retest, confirmation (AID 435004).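 Further: stress induced by proteasome inhibitor MG132 added 30 min after compound; luciferase reporter driven by HSF1 response element in NIH3T3 cells; actives raise luminescence as potentiators of the MG132 stress response.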 The experiment is classed as functional.

A short description of experiment [5]: IC50 of Artemis nuclease activity blockers – biochemical, fluorescence intensity, dose response (AID 720701).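 Further: Artemis endonuclease enzyme.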 The format is functional.
Experiment [6] has as its target Ephrin type-A receptor 4 (Mus musculus, UniProt Q03137). In words: EphA4 ligand-binding antagonists – biochemical, colorimetric, mouse EphA4, primary screen (AID 689). The experiment is classed as functional.
Experiment [7] deals with T2, Streptokinase A (Streptococcus pyogenes serotype M1, UniProt P10520).
T2 sequence (P10520 whole entry): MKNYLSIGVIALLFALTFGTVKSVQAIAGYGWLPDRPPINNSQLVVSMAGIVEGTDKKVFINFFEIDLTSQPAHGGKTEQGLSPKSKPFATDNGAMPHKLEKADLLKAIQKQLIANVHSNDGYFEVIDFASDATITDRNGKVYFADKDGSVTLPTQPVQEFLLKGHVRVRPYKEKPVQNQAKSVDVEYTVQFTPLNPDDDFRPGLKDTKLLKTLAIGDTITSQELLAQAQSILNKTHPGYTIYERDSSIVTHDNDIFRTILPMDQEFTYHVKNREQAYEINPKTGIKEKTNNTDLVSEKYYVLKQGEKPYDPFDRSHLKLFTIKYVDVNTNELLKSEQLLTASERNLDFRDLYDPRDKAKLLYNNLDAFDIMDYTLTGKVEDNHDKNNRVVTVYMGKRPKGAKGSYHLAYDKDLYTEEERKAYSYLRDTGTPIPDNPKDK
Nature of the experiment: viability-normalized secreted streptokinase activity reduction – plasminogen activation absorbance, OD405, dose response (AID 1914).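 Further: secreted streptokinase activity via plasminogen activation per viability signal from cell pellet.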 The format is functional, Streptococcus pyogenes M1 GAS.

Experiment [8] concerns Streptococcus. In words: GAS UMAA2166 growth inhibition – luminescence, BacTiterGlo, counter-screen for streptokinase expression inhibitor project, dose response (AID 1915).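 Further: potency for reduction of bacterial viability or growth.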 The experiment is classed as functional, organism-based.
For experiment [9], the target named is Heat shock protein HSP 90-alpha (Homo sapiens, UniProt P07900). The experiment is classed as functional, organism-based.
The nature of experiment [10]: luciferase reporter signal suppression in cells – H4 neuroglioma cells, luminescence, dose response (AID 1990). The experiment is classed as functional, cell-based.
The nature of experiment [11]: Luminescence Cell-Based Dose Response HTS to Identify Inhibitors of 5'UTR Stem-Loop Driven Prion Protein mRNA Translation in H4 Neuroglioblastoma Cells. [Related pubchem assays: 1827 (Project Summary), 1813 (Primary HTS)]. The experiment is classed as functional.
Experiment [12] addresses Transthyretin (Homo sapiens, UniProt P02766). Nature of the experiment: Luminescence-based cell-based high throughput dose response assay to identify activators of Transthyretin (TTR) transcription. The format is functional.
The target of experiment [13] is Kallikrein-7 (Homo sapiens, UniProt P49862). In words: Fluorescence Intensity-based biochemical primary high throughput dose response assay to identify activators of kallikrein-7 (K7) zymogen.
The target of experiment [14] is T3, Aminopeptidase N (Plasmodium falciparum FcB1/Columbia, UniProt O96935).
T3 sequence (O96935 whole entry): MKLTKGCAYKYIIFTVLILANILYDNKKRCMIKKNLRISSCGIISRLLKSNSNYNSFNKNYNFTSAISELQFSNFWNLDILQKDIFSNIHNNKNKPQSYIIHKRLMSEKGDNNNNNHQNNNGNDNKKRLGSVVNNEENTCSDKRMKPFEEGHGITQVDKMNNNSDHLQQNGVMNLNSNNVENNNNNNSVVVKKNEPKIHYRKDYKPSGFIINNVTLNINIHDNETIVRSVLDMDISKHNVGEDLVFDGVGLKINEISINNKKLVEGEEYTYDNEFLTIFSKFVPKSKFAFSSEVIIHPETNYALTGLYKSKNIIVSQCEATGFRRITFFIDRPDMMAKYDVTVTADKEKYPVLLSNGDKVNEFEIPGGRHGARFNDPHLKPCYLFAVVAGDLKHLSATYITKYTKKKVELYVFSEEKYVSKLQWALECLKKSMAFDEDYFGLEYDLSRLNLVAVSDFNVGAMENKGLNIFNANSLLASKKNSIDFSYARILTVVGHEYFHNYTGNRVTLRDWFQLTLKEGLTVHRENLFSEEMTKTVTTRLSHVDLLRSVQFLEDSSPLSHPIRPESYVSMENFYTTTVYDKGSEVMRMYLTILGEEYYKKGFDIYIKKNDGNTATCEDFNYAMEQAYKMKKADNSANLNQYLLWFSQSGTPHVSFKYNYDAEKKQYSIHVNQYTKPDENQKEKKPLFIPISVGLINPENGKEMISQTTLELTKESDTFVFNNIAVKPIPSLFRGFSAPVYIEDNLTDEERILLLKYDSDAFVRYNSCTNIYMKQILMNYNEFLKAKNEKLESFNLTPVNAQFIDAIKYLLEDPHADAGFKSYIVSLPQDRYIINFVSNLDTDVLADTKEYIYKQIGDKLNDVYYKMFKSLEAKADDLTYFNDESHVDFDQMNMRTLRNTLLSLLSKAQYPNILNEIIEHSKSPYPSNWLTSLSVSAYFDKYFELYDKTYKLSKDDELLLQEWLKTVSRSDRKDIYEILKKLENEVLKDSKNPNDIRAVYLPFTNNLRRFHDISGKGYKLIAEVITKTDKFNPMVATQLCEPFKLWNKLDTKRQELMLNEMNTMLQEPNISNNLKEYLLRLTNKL
In words: malaria alanyl aminopeptidase activity blockers – biochemical, fluorogenic H-Leu-NHMec substrate, 1536-well (AID 1445). Further details: species or system Plasmodium falciparum 3D7, 3D7.

The nature of experiment [15]: cells. The format is functional.
Experiment [16] in a line: inhibition of Env-driven cell fusion – HIV entry, plate reader, dry powder, dose response (AID 687023). The experiment is classed as functional, cell-based.
The nature of experiment [17]: viability loss in CEM21 cells – cell-based, plate reader, dry powder, cytotoxicity control, dose response (AID 687026). The format is functional.
Experiment [18] is described as follows: viability loss in human Jurkat cells – cell-based, luminescence, cytotoxicity control for P. falciparum gametocyte viability project, dose response (AID 1117277).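 Further: potency reflects loss of cellular ATP meaning fewer viable cells.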 The experiment is classed as functional.
Experiment [19] can be described thus: viability inhibitors of stage V gametocytes – luminescence, dose response (AID 1117278).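 Further: gametocytes exposed to compound for 24 hours.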 The format is functional, cell-based.
Experiment [20] can be described thus: glucagon-like peptide-1 release potency in STC-1, concentration-response, half-maximal inhibitory concentration in the STC-1 line (AID 1117345). The format is functional, cell-based.
Experiment [21] can be described thus: Potency on glucagon-like peptide 1 release, dose-response in NCI-H716 cell line, half maximal inhibitory concentration (AID 1117344). The experiment is classed as functional, cell-based.
Experiment [22] can be described thus: PAX5 cellular inhibition readout – cell-based, plate reader, dry powder samples, selectivity assay for PAX8 inhibitor project, dose response (AID 743047).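 Further: HEK293 cells carrying a Pax5 driven CD19 promoter luciferase reporter; potency of inhibitors that lower reporter luminescence.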 The format is functional.
Experiment [23] is described as follows: OVCAR-3 cell viability loss – plate reader, dry powder samples, PAX8 inhibitor project, dose response (AID 743044). The experiment is classed as functional, cell-based.
Experiment [24] can be described thus: COV434 cell viability loss – plate reader, dry powder, SA7, cytotoxicity control for PAX8 inhibitor project, dose response (AID 743145). The format is functional, cell-based.
A short description of experiment [25]: OV-90 cell viability loss – plate reader, dry powder, SA8, PAX8 inhibitor project, dose response (AID 743149). The experiment is classed as functional, cell-based.
Experiment [26] can be described thus: COV362 cell viability loss – plate reader, dry powder, SA12, cytotoxicity control for PAX8 inhibitor project, dose response (AID 743144). The format is functional, cell-based.
Experiment [27] in a line: cytotoxicity in HEK293 background cells – cell-based, dry powder, set 2, counter-screen for EBV LMP1 inhibitor project, dose response (AID 624374). The format is functional.
Experiment [28] can be described thus: inhibitors acting on PAX2 in cells – cell-based, plate reader, dry powder samples, selectivity assay for PAX8 inhibitor project, dose response (AID 743048).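 Further: HEK293 cells carrying a WT1 promoter luciferase reporter driven by expressed Pax2; potency is for inhibition of Pax2 driven reporter signal.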 The experiment is classed as functional.
Experiment [29] can be described thus: PAX8-dependent cell viability loss – plate reader, dry powder, dose response (AID 743049). The experiment is classed as functional, cell-based.
In experiment [30] the target is Paired box protein Pax-8 (Homo sapiens, UniProt Q06710). Nature of the experiment: PAX8 transcriptional activity inhibition in RMG-I – RMG-I cells, luciferase, cherry-pick, dose response (AID 687027).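 Further: luciferase reporter driven by Pax8 target thyroperoxidase promoter measured by SteadyGlo luminescence.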 The format is functional, cell-based.

From ChEMBL document CHEMBL1201862, “PubChem BioAssay data set” (2004) come the findings set out here.

The structures appear in SMILES notation. Several values for one entry are separate records, joined by “and”; a condition that tells them apart may be missing. Equal values may be shown once. Activity calls are given as the source filed them. A value given as a limit tells only on which side of the number the result lay.

Sequence of Paired box protein Pax-8 (Q06710 whole entry): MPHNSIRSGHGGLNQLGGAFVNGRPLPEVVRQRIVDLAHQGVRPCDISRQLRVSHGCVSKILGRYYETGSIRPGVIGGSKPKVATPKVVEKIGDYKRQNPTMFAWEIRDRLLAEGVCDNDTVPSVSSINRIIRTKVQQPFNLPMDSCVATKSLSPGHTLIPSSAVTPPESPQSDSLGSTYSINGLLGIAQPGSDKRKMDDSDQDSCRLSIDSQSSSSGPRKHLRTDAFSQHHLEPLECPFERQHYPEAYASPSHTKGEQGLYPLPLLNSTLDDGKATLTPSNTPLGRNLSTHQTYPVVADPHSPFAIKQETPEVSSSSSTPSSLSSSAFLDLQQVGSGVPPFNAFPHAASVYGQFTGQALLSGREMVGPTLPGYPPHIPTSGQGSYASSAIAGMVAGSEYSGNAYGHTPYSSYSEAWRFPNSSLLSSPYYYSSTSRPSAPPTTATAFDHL
Sequence of Ephrin type-A receptor 4 (Q03137 whole entry): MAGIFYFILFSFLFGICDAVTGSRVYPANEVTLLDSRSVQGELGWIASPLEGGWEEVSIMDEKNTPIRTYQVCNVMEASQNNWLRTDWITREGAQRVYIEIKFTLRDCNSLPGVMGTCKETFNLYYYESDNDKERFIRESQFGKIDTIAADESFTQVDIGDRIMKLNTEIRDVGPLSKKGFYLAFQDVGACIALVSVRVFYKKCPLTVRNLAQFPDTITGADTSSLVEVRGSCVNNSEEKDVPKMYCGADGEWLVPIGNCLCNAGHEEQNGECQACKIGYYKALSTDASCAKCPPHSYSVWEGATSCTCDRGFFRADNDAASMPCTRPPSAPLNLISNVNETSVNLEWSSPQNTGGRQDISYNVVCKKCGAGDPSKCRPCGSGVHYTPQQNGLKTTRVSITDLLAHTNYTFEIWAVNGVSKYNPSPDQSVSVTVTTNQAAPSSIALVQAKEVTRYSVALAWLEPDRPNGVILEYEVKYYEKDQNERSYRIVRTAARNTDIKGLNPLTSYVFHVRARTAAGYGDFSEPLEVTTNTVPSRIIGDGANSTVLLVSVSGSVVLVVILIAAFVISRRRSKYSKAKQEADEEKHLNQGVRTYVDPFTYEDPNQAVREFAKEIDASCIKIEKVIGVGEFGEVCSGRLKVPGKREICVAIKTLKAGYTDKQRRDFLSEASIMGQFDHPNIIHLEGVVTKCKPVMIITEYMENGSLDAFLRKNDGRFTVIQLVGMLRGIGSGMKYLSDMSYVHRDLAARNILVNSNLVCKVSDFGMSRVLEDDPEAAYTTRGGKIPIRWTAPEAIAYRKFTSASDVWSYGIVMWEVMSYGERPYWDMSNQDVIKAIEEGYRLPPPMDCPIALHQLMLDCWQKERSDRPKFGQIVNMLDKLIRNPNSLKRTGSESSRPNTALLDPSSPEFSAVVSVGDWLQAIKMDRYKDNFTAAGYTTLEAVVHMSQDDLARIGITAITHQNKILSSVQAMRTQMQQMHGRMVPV
Sequence of Kallikrein-7 (P49862 whole entry): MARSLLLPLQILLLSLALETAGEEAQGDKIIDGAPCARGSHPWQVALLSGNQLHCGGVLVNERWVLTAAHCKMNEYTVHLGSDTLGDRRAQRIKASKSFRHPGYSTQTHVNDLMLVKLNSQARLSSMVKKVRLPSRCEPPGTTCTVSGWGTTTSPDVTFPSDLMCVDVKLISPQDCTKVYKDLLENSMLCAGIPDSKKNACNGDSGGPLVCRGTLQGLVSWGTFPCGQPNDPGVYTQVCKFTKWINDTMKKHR

For the compound `O=C(/C=C/c1ccccc1)c1cc(Br)ccc(=O)c1O`, in experiment [1], the CC50 was 5.71 µM (active). Also, the EC50 was 1.95 µM (active) in [2]; > 120 µM (not active) in [3]; 15.9 µM (active) in [4]; > 150 µM (not active) in [7]; 7.42 µM (active) in [8]; 11.6 µM (active) in [10]. In addition, the EC50 in experiment [11] is reported as > 120 µM (not active). Moreover, the IC50 in [5] is 19.1 µM (active); in experiment [6], 17.3 µM (active). Besides, the AC50 in experiment [9] was 3.01 µM (active).
Take `Cn1ncc(Br)c1C(=O)N1CCc2ccccc21`: the EC50 in experiment [12] is > 167 µM (inactive).
Regarding `O=C(Oc1c(-c2ccco2)oc2ccccc2c1=O)c1cccnc1`, the EC50 in [13] was 19.6 µM (inactive). The IC50 is 129 µM (active) in experiment [14] and 20.5 µM (active) in [15].
With `COc1ccc(S(=O)(=O)NCc2ccncc2)cc1OC`, the AC50 in experiment [16] is 25.4 µM (active) and 32 µM (active); in experiment [17], > 70 µM (inactive).
For the compound `c1ccc(CNC2=NCCS2)cc1`, the IC50 in experiment [18] was > 83.2 µM (inactive); in experiment [19], > 109 µM (inactive).
Regarding `Cc1cc(N)c2cc(NC(=O)Nc3ccc4nc(C)cc(N)c4c3)ccc2n1`, the IC50 was > 40 µM (inactive) in experiment [20] and 34.2 µM (inactive) in [21].
Regarding `C[C@@H]1CN([C@@H](C)CO)S(=O)(=O)c2ccc(C#Cc3ccncc3)cc2O[C@H]1CN(C)C(=O)Nc1ccc2c(c1)OCO2`, the AC50 was 31.1 µM (active) in experiment [22]; 19.1 µM (active) in experiment [23]; 0.179 µM (active) in experiment [24]; 8.27 µM (active) in experiment [25]; 0.0878 nM (active) in experiment [26]; 22.7 µM (active) in [28]. For the same compound, the AC50 in experiment [29] is 13 µM (active); in experiment [30], 2.44 µM (active). Also, the AbsAC35 in [27] was found to be 39.06 µM.
